# Measured values reported in patent US9974775B2, “Substituted imidazoles as N-type calcium channel blockers” (Janssen Pharmaceutica NV, priority 2013, dated 2018).
# Like-named read-outs stand apart in the source and are kept apart here.
# Target: human N-type Ca channel (Homo sapiens, UniProt Q00975)
# Test: Measurement of electrophysiological response (QPatch)
# [1] = concentration range 0.01-0.3 μM
# [2] = N Type IC50 Data Qpatch Pulse = 1, Pulse = 1, concentration range 0.3-10 μM
# [3] = N Type IC50 Data Qpatch Pulse = 15, Pulse = 15, concentration range 0.3-10 μM
# Description: The recombinant cell line described above was used in the measurement of electrophysiological properties with QPatch (Sophion). […] Prior to the experiment, the flasks were moved to 30° C. and incubated for 48-72 hrs. On the day of assaying, cells were detached and harvested. The cell pellet was re-suspended in SMF4HEK (HyClone)/25 mM HEPS at 2-5 million/mL and placed on the QStirrer of the QPatch for 30-60 min prior to the start of the assay. […] Microtiter-Plate/Reference Buffer contained 140 mM TEA-Cl, 10 mM BaCl2, 0.8 mM MgCl2, 10 mM HEPES pH˜7.4 adjusted with TEA-OH/HCl, and ˜300 mOsm. Cells were transferred to a QPatch 48 plate and gigaseal was formed. The plate was perfused with intracellular and extracellular buffer. […] In brief, cells were depolarized from resting potential of −80 mV to +20 mV and current was recorded. Data was plotted as percent inhibition vs concentration of the compound and IC50 values were generated using Graphpad Prism non-linear regression analysis.
# Chain of human N-type Ca channel (Q00975 whole entry): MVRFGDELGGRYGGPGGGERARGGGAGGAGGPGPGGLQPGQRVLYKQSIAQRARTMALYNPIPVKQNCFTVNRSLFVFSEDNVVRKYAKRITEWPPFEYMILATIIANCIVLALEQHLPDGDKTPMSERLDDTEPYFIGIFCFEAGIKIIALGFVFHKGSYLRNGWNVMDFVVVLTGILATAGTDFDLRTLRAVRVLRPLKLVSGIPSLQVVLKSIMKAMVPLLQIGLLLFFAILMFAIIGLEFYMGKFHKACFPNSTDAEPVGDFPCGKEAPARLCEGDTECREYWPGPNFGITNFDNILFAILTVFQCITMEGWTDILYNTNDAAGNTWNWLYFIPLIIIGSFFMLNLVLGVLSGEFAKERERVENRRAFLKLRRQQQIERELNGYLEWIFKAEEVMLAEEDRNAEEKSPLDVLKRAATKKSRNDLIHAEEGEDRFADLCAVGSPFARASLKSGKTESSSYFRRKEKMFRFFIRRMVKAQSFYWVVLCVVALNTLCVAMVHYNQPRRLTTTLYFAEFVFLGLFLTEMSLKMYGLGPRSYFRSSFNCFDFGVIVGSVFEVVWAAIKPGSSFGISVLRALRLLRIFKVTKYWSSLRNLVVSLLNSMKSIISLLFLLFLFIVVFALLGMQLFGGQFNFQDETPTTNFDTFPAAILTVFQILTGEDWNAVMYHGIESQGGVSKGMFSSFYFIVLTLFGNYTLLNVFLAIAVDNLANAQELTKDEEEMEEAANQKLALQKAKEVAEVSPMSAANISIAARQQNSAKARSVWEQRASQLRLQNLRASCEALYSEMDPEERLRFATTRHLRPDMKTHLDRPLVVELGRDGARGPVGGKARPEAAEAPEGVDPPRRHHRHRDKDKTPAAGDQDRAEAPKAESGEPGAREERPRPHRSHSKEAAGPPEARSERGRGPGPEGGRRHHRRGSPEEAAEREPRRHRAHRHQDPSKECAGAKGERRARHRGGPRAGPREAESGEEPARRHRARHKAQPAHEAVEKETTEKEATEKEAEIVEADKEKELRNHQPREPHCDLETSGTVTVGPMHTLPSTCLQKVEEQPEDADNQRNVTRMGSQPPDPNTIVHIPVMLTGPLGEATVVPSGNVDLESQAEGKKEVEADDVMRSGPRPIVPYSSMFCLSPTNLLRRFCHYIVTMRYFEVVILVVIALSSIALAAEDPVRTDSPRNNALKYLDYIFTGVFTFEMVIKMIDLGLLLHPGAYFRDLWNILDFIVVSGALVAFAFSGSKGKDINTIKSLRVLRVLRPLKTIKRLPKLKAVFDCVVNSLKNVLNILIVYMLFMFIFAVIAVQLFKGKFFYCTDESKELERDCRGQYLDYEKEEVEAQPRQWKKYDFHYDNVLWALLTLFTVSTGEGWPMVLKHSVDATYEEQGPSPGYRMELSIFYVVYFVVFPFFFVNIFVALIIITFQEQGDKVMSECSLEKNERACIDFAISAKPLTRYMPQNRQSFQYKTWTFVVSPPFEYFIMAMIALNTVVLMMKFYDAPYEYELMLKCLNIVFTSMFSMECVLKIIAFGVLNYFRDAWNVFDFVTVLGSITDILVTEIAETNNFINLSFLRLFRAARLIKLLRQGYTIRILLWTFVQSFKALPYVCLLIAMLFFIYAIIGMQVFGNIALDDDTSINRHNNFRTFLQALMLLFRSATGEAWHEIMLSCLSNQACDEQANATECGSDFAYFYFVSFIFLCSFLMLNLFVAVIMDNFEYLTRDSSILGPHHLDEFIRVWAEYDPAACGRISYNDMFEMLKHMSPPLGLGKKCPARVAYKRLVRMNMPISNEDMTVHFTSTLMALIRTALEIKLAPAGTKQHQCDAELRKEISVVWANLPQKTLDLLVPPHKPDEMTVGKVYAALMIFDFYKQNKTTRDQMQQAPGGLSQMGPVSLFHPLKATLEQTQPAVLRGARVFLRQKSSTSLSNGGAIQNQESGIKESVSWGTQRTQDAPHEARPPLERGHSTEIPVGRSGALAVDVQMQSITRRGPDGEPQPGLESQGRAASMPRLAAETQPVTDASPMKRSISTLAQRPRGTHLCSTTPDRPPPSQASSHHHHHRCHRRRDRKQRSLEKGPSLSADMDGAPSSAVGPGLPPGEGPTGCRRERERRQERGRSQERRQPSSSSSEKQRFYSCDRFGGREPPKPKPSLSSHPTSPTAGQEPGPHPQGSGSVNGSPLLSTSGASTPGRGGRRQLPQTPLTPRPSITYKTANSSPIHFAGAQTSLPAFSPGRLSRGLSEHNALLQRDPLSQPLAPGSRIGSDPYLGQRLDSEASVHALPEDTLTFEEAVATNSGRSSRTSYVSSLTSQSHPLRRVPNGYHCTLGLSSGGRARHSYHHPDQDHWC
# Chain of human N-type Ca channel (P54284 whole entry partner): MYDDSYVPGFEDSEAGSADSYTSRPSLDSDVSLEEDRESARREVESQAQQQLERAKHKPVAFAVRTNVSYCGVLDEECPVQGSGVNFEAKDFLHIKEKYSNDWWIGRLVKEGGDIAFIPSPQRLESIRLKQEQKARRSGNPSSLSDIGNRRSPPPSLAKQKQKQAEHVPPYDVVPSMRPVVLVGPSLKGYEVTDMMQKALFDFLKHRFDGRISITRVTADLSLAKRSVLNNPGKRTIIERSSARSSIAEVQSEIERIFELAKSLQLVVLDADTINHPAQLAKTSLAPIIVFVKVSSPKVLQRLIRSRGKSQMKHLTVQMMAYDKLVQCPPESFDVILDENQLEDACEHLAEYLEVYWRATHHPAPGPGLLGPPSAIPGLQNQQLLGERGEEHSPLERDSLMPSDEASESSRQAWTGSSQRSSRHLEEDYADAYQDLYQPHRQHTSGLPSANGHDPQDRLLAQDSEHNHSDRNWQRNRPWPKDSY
# Chain of human N-type Ca channel (P54289 25-956 partner limits assumed): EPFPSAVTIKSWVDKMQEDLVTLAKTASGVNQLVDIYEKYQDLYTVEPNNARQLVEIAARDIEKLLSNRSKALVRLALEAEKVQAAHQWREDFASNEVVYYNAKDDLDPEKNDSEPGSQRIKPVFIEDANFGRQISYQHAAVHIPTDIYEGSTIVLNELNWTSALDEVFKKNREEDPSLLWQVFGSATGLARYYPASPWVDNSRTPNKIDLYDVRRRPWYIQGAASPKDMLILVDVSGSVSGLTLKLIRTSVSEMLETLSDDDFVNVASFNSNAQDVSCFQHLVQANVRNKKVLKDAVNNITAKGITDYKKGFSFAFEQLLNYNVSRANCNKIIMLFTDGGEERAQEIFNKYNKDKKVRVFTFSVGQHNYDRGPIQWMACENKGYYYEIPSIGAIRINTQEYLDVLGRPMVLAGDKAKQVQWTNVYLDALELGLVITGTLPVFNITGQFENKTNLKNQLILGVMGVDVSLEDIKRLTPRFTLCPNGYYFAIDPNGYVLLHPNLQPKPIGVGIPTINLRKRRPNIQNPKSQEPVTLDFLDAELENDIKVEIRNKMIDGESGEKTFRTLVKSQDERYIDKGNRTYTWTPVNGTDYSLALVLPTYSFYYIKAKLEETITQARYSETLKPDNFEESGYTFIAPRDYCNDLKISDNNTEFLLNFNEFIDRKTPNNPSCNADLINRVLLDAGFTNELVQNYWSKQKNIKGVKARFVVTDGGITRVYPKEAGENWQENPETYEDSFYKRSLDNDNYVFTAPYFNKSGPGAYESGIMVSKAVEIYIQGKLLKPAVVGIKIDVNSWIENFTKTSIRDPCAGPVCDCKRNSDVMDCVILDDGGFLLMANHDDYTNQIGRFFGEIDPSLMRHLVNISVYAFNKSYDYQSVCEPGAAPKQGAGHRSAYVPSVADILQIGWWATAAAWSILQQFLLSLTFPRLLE
# Chain of human N-type Ca channel (P54289 957-1103 partner limits assumed): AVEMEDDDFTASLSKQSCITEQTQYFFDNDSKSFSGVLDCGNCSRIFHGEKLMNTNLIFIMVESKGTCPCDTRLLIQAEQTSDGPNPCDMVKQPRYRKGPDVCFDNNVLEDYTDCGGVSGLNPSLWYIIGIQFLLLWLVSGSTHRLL
smiles,measurement,setting,value
"COc1ncccc1-c1nc(C2CC(C)(C)OC(C)(C)C2)cn1Cc1cccc(Cl)c1 [Cpd 9, 3-(1-(3-chlorobenzyl)-4-(2,2,6,6-tetramethyltetrahydro-2H-pyran-4-yl)-1H-imidazol-2-yl)-2-methoxypyridine]",Qpatch Pulse = 1 (percent inhibition),concentration range 0.01-1 μM,46%
same,Qpatch Pulse = 15 (percent inhibition),concentration range 0.01-1 μM,37%
"COc1ccc(-n2cc(C3CC(C)(C)OC(C)(C)C3)nc2-c2cccnc2OC)cc1F [Cpd 23, 3-[1-(3-Fluoro-4-methoxyphenyl)-4-(2,2,6,6-tetramethyltetrahydro-2H-pyran-4-yl)-1H-imidazol-2-yl]-2-methoxypyridine]",Qpatch Pulse = 1 (percent inhibition),concentration range 0.01-1 μM,21%
"COc1cc(-n2cc(C3CC(C)(C)OC(C)(C)C3)nc2-c2cccnc2OC)ccc1F [Cpd 24, 3-[1-(4-Fluoro-3-methoxyphenyl)-4-(2,2,6,6-tetramethyltetrahydro-2H-pyran-4-yl)-1H-imidazol-2-yl]-2-methoxypyridine]",Qpatch Pulse = 1 (percent inhibition),concentration range 0.01-1 μM,29%
"CC1(C)CC(c2cn(-c3ccc(C(F)(F)F)nc3)c(CC3CC3)n2)CC(C)(C)O1 [Cpd 59, 5-[2-(Cyclopropylmethyl)-4-(2,2,6,6-tetramethyltetrahydro-2H-pyran-4-yl)-1H-imidazol-1-yl]-2-(trifluoromethyl)pyridine]",N Type IC50 Data Qpatch Pulse = 1,[1],poor fit
same,N Type IC50 Data Qpatch Pulse = 15,[1],poor fit
"COc1nccnc1-c1nc(C2CC(C)(C)OC(C)(C)C2)cn1-c1ccc(C#N)c(F)c1 [Cpd 88, 2-fluoro-4-(2-(3-methoxypyrazin-2-yl)-4-(2,2,6,6-tetramethyltetrahydro-2H-pyran-4-yl)-1H-imidazol-1-yl)benzonitrile]",N Type IC50 Data Qpatch Pulse = 15,[1],poor fit
"COc1ccccc1-c1nc(C2CC(C)(C)OC(C)(C)C2)cn1S(=O)(=O)CC(C)C [Cpd 96, 2-(2-Methoxyphenyl)-1-[(2-methylpropyl)sulfonyl]-4-(2,2,6,6-tetramethyltetrahydro-2H-pyran-4-yl)-1H-imidazole]",IC50,,≥ 10 µM
"COc1ncccc1-c1nc(C2CC(C)(C)OC(C)(C)C2)cn1-c1cccc(F)c1F [Cpd 31, 3-(1-(2,3-difluorophenyl)-4-(2,2,6,6-tetramethyltetrahydro-2H-pyran-4-yl)-1H-imidazol-2-yl)-2-methoxypyridine]",N Type IC50 Data Qpatch Pulse = 15,[1],poor fit
"COc1ncccc1-c1nc(C2CC(C)(C)OC(C)(C)C2)cn1-c1ccc(F)c(Cl)c1 [Cpd 46, 3-[1-(3-Chloro-4-fluorophenyl)-4-(2,2,6,6-tetramethyltetrahydro-2H-pyran-4-yl)-1H-imidazol-2-yl]-2-methoxypyridine]",IC50,[2],≥ 10 µM
"COc1ncccc1-c1nc(C2CC(C)(C)OC(C)(C)C2)cn1-c1ccc(F)c(F)c1F [Cpd 16, 2-methoxy-3-(4-(2,2,6,6-tetramethyltetrahydro-2H-pyran-4-yl)-1-(2,3,4-trifluorophenyl)-1H-imidazol-2-yl)pyridine]",N Type IC50 Data Qpatch Pulse = 1,[1],poor fit
same,N Type IC50 Data Qpatch Pulse = 15,[1],poor fit
"COc1ccncc1-c1nc(C2CC(C)(C)OC(C)(C)C2)cn1-c1ccc(Cl)cc1 [Cpd 68, 3-(1-(4-chlorophenyl)-4-(2,2,6,6-tetramethyltetrahydro-2H-pyran-4-yl)-1H-imidazol-2-yl)-4-methoxypyridine]",IC50,[2],≥ 10 µM
"COc1ccccc1-c1nc(C2CC(C)(C)OC(C)(C)C2)cn1-c1ccc(C#N)c(C)c1 [Cpd 21, 4-[2-(2-Methoxyphenyl)-4-(2,2,6,6-tetramethyltetrahydro-2H-pyran-4-yl)-1H-imidazol-1-yl]-2-methylbenzonitrile]",Qpatch Pulse = 15 (percent inhibition),concentration range 0.01-1 μM,39%
"COc1ccccc1-c1nc(C2CC(C)(C)OC(C)(C)C2)cn1-c1c(F)cc(C#N)cc1F [Cpd 83, 3,5-difluoro-4-(2-(2-methoxyphenyl)-4-(2,2,6,6-tetramethyltetrahydro-2H-pyran-4-yl)-1H-imidazol-1-yl)benzonitrile]",N Type IC50 Data Qpatch Pulse = 1,[1],poor fit
same,N Type IC50 Data Qpatch Pulse = 15,[1],poor fit
"COc1ncccc1-c1nc(C2CC(C)(C)OC(C)(C)C2)cn1-c1cc(F)ccc1F [Cpd 71, 3-(1-(2,5-difluorophenyl)-4-(2,2,6,6-tetramethyltetrahydro-2H-pyran-4-yl)-1H-imidazol-2-yl)-2-methoxypyridine]",N Type IC50 Data Qpatch Pulse = 15,concentration range 0.01-1 μM,poor fit
"COc1cnccc1-c1nc(C2CC(C)(C)OC(C)(C)C2)cn1-c1ccc(Cl)cc1 [Cpd 66, 4-(1-(4-chlorophenyl)-4-(2,2,6,6-tetramethyltetrahydro-2H-pyran-4-yl)-1H-imidazol-2-yl)-3-methoxypyridine]",IC50,[2],≥ 10 µM
"COc1ncccc1-c1nc(C2CC(C)(C)OC(C)(C)C2)cn1-c1ccc(C#N)c(Cl)c1 [Cpd 78, 2-Chloro-4-[2-(2-methoxypyridin-3-yl)-4-(2,2,6,6-tetramethyltetrahydro-2H-pyran-4-yl)-1H-imidazol-1-yl]benzonitrile]",Qpatch Pulse = 1 (percent inhibition),concentration range 0.01-1 μM,58%
"COc1ncccc1-c1nc(C2CC(C)(C)OC(C)(C)C2)cn1-c1ccc(C#N)c(C)c1 [Cpd 15, 4-[2-(2-Methoxypyridin-3-yl)-4-(2,2,6,6-tetramethyltetrahydro-2H-pyran-4-yl)-1H-imidazol-1-yl]-2-methylbenzonitrile]",N Type IC50 Data Qpatch Pulse = 1,[1],poor fit
same,N Type IC50 Data Qpatch Pulse = 15,[1],poor fit
"COc1ccccc1-c1nc(C2(O)CC(C)(C)OC(C)(C)C2)cn1-c1ccc(C#N)c(F)c1 [Cpd 118, 2-Fluoro-4-[4-(4-hydroxy-2,2,6,6-tetramethyltetrahydro-2H-pyran-4-yl)-2-(2-methoxyphenyl)-1H-imidazol-1-yl]benzonitrile]",IC50,[3],≥ 10 µM
"COc1ccccc1-c1nc(C2CC(C)(C)OC(C)(C)C2)cn1-c1ccc(C)cn1 [Cpd 6, 2-[2-(2-Methoxyphenyl)-4-(2,2,6,6-tetramethyltetrahydro-2H-pyran-4-yl)-1H-imidazol-1-yl]-5-methylpyridine]",IC50,[2],≥ 10 µM
same,IC50,[3],≥ 10 µM
"CC1(C)CC(c2cn(-c3ccc(Cl)cc3)c(CC3CC3)n2)CC(C)(C)O1 [Cpd 55, 1-(4-Chlorophenyl)-2-(cyclopropylmethyl)-4-(2,2,6,6-tetramethyltetrahydro-2H-pyran-4-yl)-1H-imidazole]",Qpatch Pulse = 1 (percent inhibition),concentration range 0.01-1 μM,48%
"COc1cc(-n2cc(C3CC(C)(C)OC(C)(C)C3)nc2-c2ccccc2OC)ccc1C#N [Cpd 34, 2-Methoxy-4-[2-(2-methoxyphenyl)-4-(2,2,6,6-tetramethyltetrahydro-2H-pyran-4-yl)-1H-imidazol-1-yl]benzonitrile]",Qpatch Pulse = 1 (percent inhibition),concentration range 0.01-1 μM,38%
"CCOc1ncccc1-c1nc(C2CC(C)(C)OC(C)(C)C2)cn1-c1ccc(C#N)c(F)c1 [Cpd 89, 4-(2-(2-ethoxypyridin-3-yl)-4-(2,2,6,6-tetramethyltetrahydro-2H-pyran-4-yl)-1H-imidazol-1-yl)-2-fluorobenzonitrile]",N Type IC50 Data Qpatch Pulse = 15,[1],poor fit
"COc1ncccc1-c1nc(C2CC(C)(C)OC(C)(C)C2)cn1-c1cc(F)cc(C#N)c1 [Cpd 73, 3-fluoro-5-(2-(2-methoxypyridin-3-yl)-4-(2,2,6,6-tetramethyltetrahydro-2H-pyran-4-yl)-1H-imidazol-1-yl)benzonitrile]",N Type IC50 Data Qpatch Pulse = 1,concentration range 0.01-1 μM,poor fit
same,N Type IC50 Data Qpatch Pulse = 15,concentration range 0.01-1 μM,poor fit
